What was measured:
[1] = 303.15 K; 101.33 kPa; Liquid
[2] = xn = mol fraction of the nth substance listed; conditions: 101.3 kPa, Liquid

O=[N+]([O-])c1ccccc1 [nitrobenzene]
[1]
Conditions | mass density [kg/m3] | viscosity [mPa·s]
– | 1193.4 | 1.617

C1COCCO1 [1,4-dioxane]
[1]
Conditions | mass density [kg/m3] | viscosity [mPa·s]
– | 1022.3 | 1.086

CCCCNCCCC [dibutylamine] + ClC(Cl)Cl
[2]
Conditions | mass density, 303.15 K [kg/m3] | mass density, 313.15 K [kg/m3] | viscosity, 303.15 K [mPa·s] | viscosity, 313.15 K [mPa·s]
x1 = 0.0103 | 1455.46 | 1433.69 | 0.53 | 0.48
x1 = 0.0197 | 1441.84 | 1420.36 | 0.54 | 0.489
x1 = 0.0294 | 1428.11 | 1406.9 | 0.552 | 0.493
x1 = 0.0381 | 1415.97 | 1394.99 | 0.56 | 0.502
x1 = 0.0482 | 1401.96 | 1381.38 | 0.572 | 0.51
x1 = 0.0593 | 1387.11 | 1366.85 | 0.584 | 0.516
x1 = 0.0684 | 1375.09 | 1355.19 | 0.599 | 0.528
x1 = 0.0788 | 1361.57 | 1342.11 | 0.612 | 0.535
x1 = 0.0876 | 1350.35 | 1331.13 | 0.624 | 0.542

CCCCN(CCCC)CCCC [tributylamine] + ClC(Cl)Cl
[2]
Conditions | mass density, 303.15 K [kg/m3] | mass density, 313.15 K [kg/m3] | viscosity, 303.15 K [mPa·s] | viscosity, 313.15 K [mPa·s]
x1 = 0.0102 | 1450.1 | 1428.49 | 0.533 | 0.479
x1 = 0.0205 | 1430.19 | 1409.15 | 0.545 | 0.488
x1 = 0.0308 | 1410.92 | 1390.4 | 0.557 | 0.496
x1 = 0.0404 | 1393.58 | 1373.58 | 0.569 | 0.504
x1 = 0.0505 | 1376.08 | 1356.5 | 0.583 | 0.513
x1 = 0.0598 | 1360.44 | 1341.35 | 0.593 | 0.522
x1 = 0.0695 | 1344.77 | 1326.07 | 0.606 | 0.529
x1 = 0.0799 | 1328.42 | 1310.05 | 0.615 | 0.538
x1 = 0.0856 | 1319.72 | 1301.56 | 0.621 | 0.545

From the NIST ThermoML archive (doi:10.1016/j.tca.2004.08.013)
